Entries after “also recorded” stand apart in the source; their conditions may differ. Read-outs that look alike come from different tables or passages of the source.
Experiments:
[1] = test system: Pluripotent hepatocytes; assay: Undifferentiated cell staining of pluripotent hepatocytes; type: cell-based
Description: Pluripotent stem cells such as iPS cells, ES cells or tissue-derived stem cells are considered promising for application and development in regenerative medicine, and for example, when a cell population is to be formed from iPS cells, differentiated into tissue cells that are destined to be transplanted, it is currently the case that iPS cell-derived differentiation-induced tissue cell populations partially contain undifferentiated cells that have not completely differentiated to the desired tissue cells, cells that have differentiated to cells other than the desired tissue cells, and the original iPS cells that have undergone essentially no differentiation. It has been pointed out that when such undifferentiated cells or original iPS cells are transplanted as is into the body, they can potentially become cancerated in the future. Thus, when an iPS cell-derived differentiation-induced tissue cell population is to be used for transplantation, undifferentiated cells or original iPS cells remaining in the transplanted cell population are preferably identified and confirmed, and also eliminated.

[2] = test system: MDCK-GFP-Ras^V12 cells mixed with MDCK normal cells; assay: In vitro assay of MDCK-Ras^V12 cancerized cell small aggregates as a very early cancer model; type: cell-based, canine
Method: The MDCK normal cells were cultured in a 10 cm dish, and the MDCK-GFP-Ras^V12 cells were cultured in a 6 cm dish. The culture solution used for the MDCK normal cells was DMEM (containing Phenol Red)+10% FBS+penicillin/streptomycin.
The solution used for the MDCK-GFP-Ras^V12 cells was DMEM (containing Phenol Red)+10% FBS+penicillin/streptomycin+Zeocin (400 μg/ml)+blasticidin (5 μg/ml). […] The seeding was carried out using a DMEM+10% FBS+penicillin/streptomycin culture solution, to 1.0 to 3.0×10^4 cells per well of the 96-well dish. Tetracycline at a concentration of 2 μg/ml was added to the culture solution after 4 days when seeding was to 1.0×10^4 or after 1 day when seeding was to 3.0×10^4, and GFP-Ras^V12 was expressed, forming cancerized cell small aggregates among the MDCK normal cells (NPL 3). After 18 to 36 hours, the cells in each of the wells were rinsed 3 times with 200 μl of PBS, and then the Prestwick Chemical Library compounds and the Ministry of Health, Labour and Welfare-approved food additives, each diluted to 1 μM with a 100 μl volume of PBS, were added to the respective wells and taken up by the cells for 5 minutes at room temperature. They were then rinsed 3 times with 200 μl of PBS, and in certain cases further rinsed once with 100 μl of DMEM without Phenol Red, and observed under a multiphoton laser microscope.

[3] = cited from earlier work
[4] = test system: epithelial cells/adenocytes and connective tissue/capillaries; assay: Preferential staining of epithelial cells/adenocytes or connective tissue/capillaries; type: in vivo, mouse; conditions: 5 mg/ml for curcumin, 1 mg/ml for all other dyes
Method: A metal ring (outer diameter: 16 millimeters, inner diameter, 6 millimeters) was placed on a laboratory stage, and a rapid bonding adhesive (AronAlpha) was coated over the entire periphery of the ring surface on one side. Forceps were used to hold the rapid bonding adhesive-coated metal ring with the adhesive-coated surface facing downward, and it was set on the pronase-treated mucosal surface. During a period of about 5 minutes, the metal ring became anchored to the mucosa with the rapid bonding adhesive, and the region where the dye compound was to be applied was rinsed with PBS.
In order to avoid drying of the mucosal surface, a curcumin stock solution or sulfuretin stock solution diluted with physiological saline (PBS) (see Tables 1 to 3 for the dilution factors) was added dropwise onto the pronase-treated mucosal surface, and after allowing it to stand for 1 minute, it was rinsed 3 times with PBS, a cover glass was placed over the metal ring, and the objective lens of a multiphoton laser microscope (FV1000 MPE by Olympus Corp.) was brought near to the top of the cover glass for image observation.
The procedure from administration of the dye compound to observation was conducted as described above under “Evaluation of stainability” (same hereunder). Also, the administered concentration of dye to the mucosal surface was 5 mg/ml for curcumin as Dye No. 1, and 1 mg/ml for all of the other dyes.

[5] = test system: Large intestine; assay: Evaluation of dye compound stainability under multiphoton laser microscope, large intestine mucosal surface; type: in vivo; conditions: mucosal surface of mouse large intestine; 5 mg/ml for curcumin, 1 mg/ml for other dyes
Method: Drinking water containing 2% (w/v) dextran sodium sulfate (DSS) was given to 8-week-old C57B6 mice (male, approximately 20 g) for 7 days. After intraperitoneal injection of 0.2 ml of 5% chloral hydrate for anesthesia, the mouse abdominal wall was incised vertically to about 1 cm, and the gastrointestinal tract was raised over the abdominal wall to about 1 cm. Blood flow to the gastrointestinal tract was maintained during this time by the blood vessel flowing into the mesenteric attachment site. The gastrointestinal tract was incised vertically to about 1 cm on opposite side of the mesenteric attachment site, including the tunica muscularis and mucosa. The opposite side of the mesenteric attachment site was incised in order to prevent severance and damage of the blood vessel and minimize bleeding. When the incision site of the gastrointestinal tract was opened vertically, the mucosal surface of the gastrointestinal tract, as the food channel, became visible. When food digestion products were present they were wiped off with tissue paper.
In order to more clearly observe the gastrointestinal tract mucosal surface, a 1% pronase solution was dropped onto the mucosal surface and was allowed to stand still for 15 minutes. This pronase treatment removed the mucus from the mucosal surface, rendering the cell structure more easily visible. […]

[6] = test system: cancer lesion site versus normal mucosa of large intestine; assay: Comparison of staining patterns in normal site and cancer tumor site of large intestine; type: in vivo, mouse; conditions: for Staining of cancer lesion sites compared with normal mucosa: Example 1, regardless of pronase treatment of the mucosal surface; for Staining of cancer lesion site compared with normal mucosa: Example 3
Method: Drinking water containing 2% (w/v) dextran sodium sulfate (DSS) was given to 8-week-old C57B6 mice (male, approximately 20 g) for 7 days. After intraperitoneal injection of 0.2 ml of 5% chloral hydrate for anesthesia, the mouse abdominal wall was incised vertically to about 1 cm, and the gastrointestinal tract was raised over the abdominal wall to about 1 cm. Blood flow to the gastrointestinal tract was maintained during this time by the blood vessel flowing into the mesenteric attachment site. The gastrointestinal tract was incised vertically to about 1 cm on the opposite side of the mesenteric attachment site, including the tunica muscularis and mucosa. The opposite side of the mesenteric attachment site was incised in order to prevent severance and damage of the blood vessel and minimize bleeding. When the incision site of the gastrointestinal tract was opened vertically, the mucosal surface of the gastrointestinal tract, as the food channel, became visible. When food digestion products were present they were wiped off with tissue paper. In order to more clearly observe the gastrointestinal tract mucosal surface, a 1% pronase solution was dropped onto the mucosal surface and was allowed to stand still for 15 minutes. This pronase treatment removed the mucus from the mucosal surface, rendering the cell structure more easily visible. Next, the pronase was removed from the mucosal surface and rinsed with physiological saline (PBS). A metal ring (outer diameter: 16 millimeters, inner diameter, 6 millimeters) was placed on a laboratory stage, and a rapid bonding adhesive (AronAlpha) was coated over the entire periphery of the surface on one side. Forceps were used to hold the rapid bonding adhesive-coated metal ring with the adhesive-coated surface facing downward, and it was set on the pronase-treated mucosal surface. During a period of about 5 minutes, the metal ring became anchored to the mucosa with the rapid bonding adhesive, and the region where the dye compound was to be applied was rinsed with PBS. […] FIG. 32 is a drawing for illustration of a stainability evaluation step for the aforementioned dye compounds. […] Z stack image). […] Both of the staining photographs of the normal site and cancer tumor site were taken under the same conditions.

[7] = test system: mucosal surfaces; assay: Photon dose necessary to obtain fluorescent images of dye-coated mucosal surfaces; type: in vivo, mouse; conditions: mucosal surfaces coated with dye
[8] = test system: human gastric mucosa (normal site and stomach cancer site); assay: Staining of surgically excised fresh human gastric mucosa; conditions: laser power of 1%
Description: Similar staining also occurred with surgically excised fresh human gastric mucosa. […] The centers of the circular structures are the exits of the fundic glands. It was thus possible to confirm the characteristic of normal tissue whereby epithelial cells arrange in a circular manner without disparate sizes. […] The blackened elliptical portions in each cell are the nuclei.

[9] = test system: mouse tracheal epithelial cells; assay: Multiphoton laser microscope imaging of stained tracheal epithelial cells; conditions: laser power of 3%
[10] = test system: mouse bladder epithelial cells; assay: Multiphoton laser microscope imaging of stained bladder epithelial cells; conditions: laser power of 3%
[11] = without pronase treatment, cancer 2 to 4 millimeters in diameter

| Compound | Staining of pluripotent hepatocytes [1] | Cancer cell staining intensity relative to normal cell staining intensity ([2]; FIG. 19) | Staining of GFP-Ras^V12 positive cancerized cells versus MDCK normal cells ([2]; Ministry of Health, Labour and Welfare-approved food additives, 1 mg/ml, excitation 750, 800, 850, 900 nm, red fluorescence) | LD50 ([3]; Mouse, Intra-abdominal) | Cell group preferentially stained (epithelial cells/adenocytes or connective tissue/capillaries) [4] | Excitation by multiphoton laser and brightness of image [5] | Staining of cancer lesion sites compared with normal mucosa [6] | Staining of cancer lesion site compared with normal mucosa [6, 11] | Photon dose necessary to obtain fluorescent images compared to non-staining [7] | LD50 ([3]; mouse, in vivo, po) | Staining of cancer lesion site compared with normal mucosa ([6]; after 15 minutes treatment with 1% pronase MS) | Staining of normal gastric mucosa site [8] | Staining of stomach cancer site [8] | Image quality of stained cells [9] | Image quality of stained cells [10] |
| --- | --- | --- | --- | --- | --- | --- | --- | --- | --- | --- | --- | --- | --- | --- | --- |
| O=C([O-])c1c(Cl)c(Cl)c(Cl)c(Cl)c1-c1c2cc(Br)c(=O)c(Br)c-2oc2c(Br)c([O-])c(Br)cc12.[Na+].[Na+] [Red #104, phloxine] | exhibit undifferentiated cell staining | 6.7 times | labeled GFP-Ras^V12-positive cancerized cell small aggregates more intensely than normal cells; also recorded: All GFP-Ras^V12 positive cells stained with Red #104 | 310 mg/kg | preferentially stained epithelial cells/adenocytes |  |  |  |  |  |  |  |  |  |  |
| O=C1/C(=C/c2ccc(O)c(O)c2)Oc2cc(O)ccc21 [Sulfuretin] |  |  |  |  | intensely stained epithelial cells/adenocytes and faintly stained connective tissue/capillaries | strongly excited by a multiphoton laser and provided bright images | stained cancer lesion sites much more intensely than normal mucosa | stained the cancer lesion site significantly more intensely than the normal mucosa | 4% | 300 mg/kg |  |  |  |  |  |
| COc1cc(/C=C/C(=O)CC(=O)/C=C/c2ccc(O)c(OC)c2)ccc1O [curcumin] |  |  |  |  | intensely stained epithelial cells/adenocytes and faintly stained connective tissue/capillaries | strongly excited by a multiphoton laser and provided bright images | stained cancer lesion sites much more intensely than normal mucosa | stained the cancer lesion site significantly more intensely than the normal mucosa | 3% |  | stained the cancer lesion site significantly more intensely than the normal mucosa | the circularly arranged normal epithelial cells are stained | cancer cells are stained | an image with sufficient brightness and contrast for diagnosis was obtained | an image with sufficient brightness and contrast for diagnosis was obtained |

Source: patent US11293870B2, “Vital stain” (Mie University, priority 2013, dated 2022)
